Reference: PubChem BioAssay (NCI)
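Tested at 5 concentrations; 48 h exposure; 96-well plates; endpoints linearly interpolated, else capped at highest concentration. Here, GI50 denotes the concentration required for 50% inhibition of growth. TGI denotes the concentration required for complete inhibition of growth.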

Legend:
Test in all cases: NCI anticancer screen, dose series, 48 h
[1] = system: EKVX NSCLC
[2] = system: SK-MEL-28 melanoma
[3] = system: UACC-62 melanoma
[4] = system: MDA-MB-435
[5] = system: SW-620 colon
[6] = system: SN12C renal
[7] = system: NCI/ADR-RES ovarian
[8] = system: HOP-62 NSCLC
[9] = system: MDA-MB-231 breast
[10] = system: SK-MEL-2 melanoma
[11] = system: U251 CNS
[12] = system: SF-268 CNS
[13] = system: MALME-3M melanoma
[14] = system: HCT-15 colon
[15] = system: M14 melanoma
[16] = system: UACC-257 melanoma
[17] = system: SNB-75 CNS
[18] = system: ACHN renal
[19] = system: HT29 colon
[20] = system: UO-31 renal
[21] = system: LOX IMVI melanoma
[22] = system: HCC-2998 colon
[23] = system: SNB-19 CNS
[24] = system: NCI-H522 lung
[25] = system: COLO 205 colon
[26] = system: HS 578T breast
[27] = system: HOP-92 NSCLC
[28] = system: A549 NSCLC
[29] = system: CAKI-1 renal
[30] = system: SF-539 CNS
[31] = system: A498 renal
[32] = system: SF-295 CNS
[33] = system: RXF 393 renal
[34] = system: OVCAR-3 ovarian
[35] = system: NCI-H23 lung
[36] = system: SK-MEL-5 melanoma
[37] = system: HCT-116 colon
[38] = system: OVCAR-4 ovarian
[39] = system: MOLT-4 leukemia
[40] = system: NCI-H226 lung
[41] = system: OVCAR-5 ovarian
[42] = system: KM12 colon
[43] = system: DU-145 prostate
[44] = system: OVCAR-8 ovarian
[45] = system: 786-0 renal
[46] = system: RPMI-8226 leukemia
[47] = system: IGROV1 ovarian
[48] = system: PC-3 prostate
[49] = system: NCI-H460 lung
[50] = system: BT-549 breast
[51] = system: SK-OV-3 ovarian
[52] = system: TK-10 renal
[53] = system: CCRF-CEM leukemia
[54] = system: T-47D breast
[55] = system: HL-60(TB) leukemia
[56] = system: K-562 leukemia
[57] = system: SR leukemia

Compound: C=C1C(=O)O[C@H]2[C@H]1CC/C(CNC(=O)c1cccc3ccccc13)=C\CC[C@@]1(C)O[C@@H]21
- GI50 [1]: 2.2 µM
- TGI [1]: 8.79 µM
- GI50 [2]: 2.78 µM
- TGI [2]: 10.7 µM
- GI50 [3]: 1.64 µM
- TGI [3]: 3.9 µM
- GI50 [4]: 1.99 µM
- TGI [4]: 6.56 µM
- GI50 [5]: 1.12 µM
- TGI [5]: 3.04 µM
- GI50 [6]: 1.96 µM
- TGI [6]: 5.91 µM
- GI50 [7]: 4.52 µM
- TGI [7]: 46.9 µM
- GI50 [8]: 14.1 µM
- TGI [8]: 30.7 µM
- GI50 [9]: 1.59 µM
- TGI [9]: 4 µM
- GI50 [10]: 6.51 µM
- TGI [10]: 24.2 µM
- GI50 [11]: 5.2 µM
- TGI [11]: 18.2 µM
- GI50 [12]: 5.22 µM
- TGI [12]: 20 µM
- GI50 [13]: 1.41 µM
- TGI [13]: 3.23 µM
- GI50 [14]: 1.31 µM
- TGI [14]: 3.14 µM
- GI50 [15]: 1.57 µM
- TGI [15]: 3.76 µM
- GI50 [16]: 1.59 µM
- TGI [16]: 3.61 µM
- GI50 [17]: 11.9 µM
- TGI [17]: 27.1 µM
- GI50 [18]: 1.52 µM
- TGI [18]: 6.3 µM
- GI50 [19]: 1.84 µM
- TGI [19]: 4.75 µM
- GI50 [20]: 1.44 µM
- TGI [20]: 2.94 µM
- GI50 [21]: 1.53 µM
- TGI [21]: 3.19 µM
- GI50 [22]: 2.43 µM
- TGI [22]: 5.2 µM
- GI50 [23]: 5.96 µM
- TGI [23]: 20 µM
- GI50 [24]: 1.36 µM
- TGI [24]: 2.95 µM
- GI50 [25]: 1.75 µM
- TGI [25]: 3.53 µM
- GI50 [26]: 6.22 µM
- TGI [26]: 44.4 µM
- GI50 [27]: 1.83 µM
- TGI [27]: 4.44 µM
- GI50 [28]: 14.1 µM
- TGI [28]: 35.3 µM
- GI50 [29]: 1.19 µM
- TGI [29]: 4.74 µM
- GI50 [30]: 1.85 µM
- TGI [30]: 5.11 µM
- GI50 [31]: 5.93 µM
- TGI [31]: 19.2 µM
- GI50 [32]: 6.15 µM
- TGI [32]: 21.6 µM
- GI50 [33]: 1.18 µM
- TGI [33]: 2.6 µM
- GI50 [34]: 1.31 µM
- TGI [34]: 2.77 µM
- GI50 [35]: 3.67 µM
- TGI [35]: 19.1 µM
- GI50 [36]: 3 µM
- TGI [36]: 11.5 µM
- GI50 [37]: 1.03 µM
- TGI [37]: 2.32 µM
- GI50 [38]: 2.34 µM
- TGI [38]: 8 µM
- GI50 [39]: 1.7 µM
- TGI [39]: 5.62 µM
- GI50 [40]: 29.1 µM
- TGI [40]: 77.6 µM
- GI50 [41]: 3.6 µM
- TGI [41]: 14 µM
- GI50 [42]: 5.25 µM
- TGI [42]: 21 µM
- GI50 [43]: 1.02 µM
- TGI [43]: 2.47 µM
- GI50 [44]: 3.29 µM
- TGI [44]: 12 µM
- GI50 [45]: 1.64 µM
- TGI [45]: 3.41 µM
- GI50 [46]: 2.02 µM
- TGI [46]: 6.4 µM
- GI50 [47]: 1.33 µM
- TGI [47]: 3.86 µM
- GI50 [48]: 1.79 µM
- TGI [48]: 4 µM
- GI50 [49]: 7.23 µM
- TGI [49]: 25.2 µM
- GI50 [50]: 1.58 µM
- TGI [50]: 3.87 µM
- GI50 [51]: 17.1 µM
- TGI [51]: 33.1 µM
- GI50 [52]: 1.98 µM
- TGI [52]: 4.46 µM
- GI50 [53]: 0.424 µM
- TGI [53]: 6.03 µM
- GI50 [54]: 2.55 µM
- TGI [54]: 9.08 µM
- GI50 [55]: 1.34 µM
- TGI [55]: 4.38 µM

Compound: CC1OC(OC2C(O)C(OCCc3ccc(O)c(O)c3)OC(CO)C2OC(=O)/C=C/c2ccc(O)c(O)c2)C(O)C(O)C1OC1OCC(O)(CO)C1O (stereo not drawn)
- GI50 [1]: > 100 µM
- TGI [1]: > 100 µM
- GI50 [2]: > 100 µM
- TGI [2]: > 100 µM
- GI50 [3]: > 100 µM
- TGI [3]: > 100 µM
- GI50 [4]: 16.1 µM
- TGI [4]: 35.3 µM
- GI50 [5]: 25 µM
- TGI [5]: 57.9 µM
- GI50 [56]: 39.3 µM
- TGI [56]: > 100 µM
- GI50 [6]: > 100 µM
- TGI [6]: > 100 µM
- GI50 [7]: 89 µM
- TGI [7]: > 100 µM
- GI50 [8]: > 100 µM
- TGI [8]: > 100 µM
- GI50 [9]: > 100 µM
- TGI [9]: > 100 µM
- GI50 [10]: > 100 µM
- TGI [10]: > 100 µM
- GI50 [11]: > 100 µM
- TGI [11]: > 100 µM
- GI50 [12]: 0.0141 µM
- TGI [12]: 23.7 µM
- GI50 [14]: > 100 µM
- TGI [14]: > 100 µM
- GI50 [15]: > 100 µM
- TGI [15]: > 100 µM
- GI50 [16]: > 100 µM
- TGI [16]: > 100 µM
- GI50 [17]: > 100 µM
- TGI [17]: > 100 µM
- GI50 [20]: > 100 µM
- TGI [20]: > 100 µM
- GI50 [21]: 17.2 µM
- TGI [21]: 35.3 µM
- GI50 [23]: > 100 µM
- TGI [23]: > 100 µM
- GI50 [24]: > 100 µM
- TGI [24]: > 100 µM
- GI50 [25]: > 100 µM
- TGI [25]: > 100 µM
- GI50 [26]: > 100 µM
- TGI [26]: > 100 µM
- GI50 [28]: > 100 µM
- TGI [28]: > 100 µM
- GI50 [29]: 7.71 µM
- TGI [29]: > 100 µM
- GI50 [30]: 24.6 µM
- TGI [30]: 79 µM
- GI50 [32]: > 100 µM
- TGI [32]: > 100 µM
- GI50 [33]: > 100 µM
- TGI [33]: > 100 µM
- GI50 [34]: 27.4 µM
- TGI [34]: > 100 µM
- GI50 [36]: > 100 µM
- TGI [36]: > 100 µM
- GI50 [37]: 20.3 µM
- TGI [37]: 47.7 µM
- GI50 [57]: 52.1 µM
- TGI [57]: > 100 µM
- GI50 [38]: > 100 µM
- TGI [38]: > 100 µM
- GI50 [39]: 55.6 µM
- TGI [39]: > 100 µM
- GI50 [40]: > 100 µM
- TGI [40]: > 100 µM
- GI50 [41]: > 100 µM
- TGI [41]: > 100 µM
- GI50 [42]: > 100 µM
- TGI [42]: > 100 µM
- GI50 [43]: 30.1 µM
- TGI [43]: > 100 µM
- GI50 [44]: > 100 µM
- TGI [44]: > 100 µM
- GI50 [45]: 44.6 µM
- TGI [45]: > 100 µM
- GI50 [46]: 38.5 µM
- TGI [46]: > 100 µM
- GI50 [47]: > 100 µM
- TGI [47]: > 100 µM
- GI50 [48]: 0.85 µM
- TGI [48]: > 100 µM
- GI50 [49]: 96.9 µM
- TGI [49]: > 100 µM
- GI50 [50]: 19.8 µM
- TGI [50]: 42.2 µM
- GI50 [51]: > 100 µM
- TGI [51]: > 100 µM
- GI50 [52]: > 100 µM
- TGI [52]: > 100 µM
- GI50 [54]: > 100 µM
- TGI [54]: > 100 µM
- GI50 [55]: 69.8 µM
- TGI [55]: > 100 µM

Compound: COC(=O)[C@](NC(=O)OCc1ccccc1)([C@@H](C)S(=O)c1ccc(C)cc1)C(F)(F)F (stereo partly drawn)
- TGI [1]: > 100 µM
- TGI [2]: > 100 µM
- TGI [3]: > 100 µM
- TGI [4]: > 100 µM
- TGI [5]: > 100 µM
- TGI [56]: > 100 µM
- TGI [7]: > 100 µM
- TGI [8]: > 100 µM
- TGI [9]: > 100 µM
- TGI [10]: 48.9 µM
- TGI [11]: > 100 µM
- TGI [12]: > 100 µM
- TGI [13]: > 100 µM
- TGI [14]: > 100 µM
- TGI [15]: > 100 µM
- TGI [16]: 86.6 µM
- TGI [17]: > 100 µM
- TGI [18]: > 100 µM
- TGI [19]: 67 µM
- TGI [20]: 95.9 µM
- TGI [21]: > 100 µM
- TGI [22]: > 100 µM
- TGI [23]: > 100 µM
- TGI [24]: > 100 µM
- TGI [25]: 64.7 µM
- TGI [26]: > 100 µM
- TGI [27]: 96.4 µM
- TGI [28]: > 100 µM
- TGI [29]: > 100 µM
- TGI [31]: 95.8 µM
- TGI [32]: > 100 µM
- TGI [33]: 65.8 µM
- TGI [34]: > 100 µM
- TGI [35]: 95.1 µM
- TGI [36]: 33.1 µM
- TGI [37]: > 100 µM
- TGI [57]: 61.5 µM
- TGI [38]: 89.2 µM
- TGI [39]: 70 µM
- TGI [40]: > 100 µM
- TGI [41]: > 100 µM
- TGI [42]: > 100 µM
- TGI [43]: > 100 µM
- TGI [44]: > 100 µM
- TGI [45]: > 100 µM
- TGI [46]: > 100 µM
- TGI [47]: > 100 µM
- TGI [48]: > 100 µM
- TGI [49]: > 100 µM
- TGI [50]: 88.8 µM
- TGI [51]: > 100 µM
- TGI [52]: 70 µM
- TGI [53]: 92 µM
- TGI [54]: > 100 µM
- TGI [55]: 38.9 µM
